Laboratory results: ChEMBL document CHEMBL1201862, “PubChem BioAssay data set” (2004)
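Cells were grown in 96-well plates and exposed to each compound for 48 hours at five concentrations; endpoints were interpolated linearly between bracketing concentrations, or set to the highest concentration if not reached. GI50: concentration for 50% inhibition of growth.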 The source made the active and inactive calls. No stated cut-off is given here; in the data, active = GI50 up to about 1.1 µM and inactive = higher.

Columns and labels:
Experiment in all cases: growth of human tumour cells (NCI), 48 h
U-251 = tested on: U-251
CCRF-CEM = tested on: CCRF-CEM
HCC 2998 = tested on: HCC 2998
SR = tested on: SR
KM-20L2 = tested on: KM-20L2
RPMI-8226 = tested on: RPMI-8226
EKVX = tested on: EKVX
HCT-116 = tested on: HCT-116
SF-295 = tested on: SF-295
HCT-15 = tested on: HCT-15
SW-620 = tested on: SW-620
SN12C = tested on: SN12C
SK-OV-3 = tested on: SK-OV-3
COLO 205 = tested on: COLO 205
UACC-257 = tested on: UACC-257
IGROV-1 = tested on: IGROV-1
MOLT-4 = tested on: MOLT-4
SK-MEL-5 = tested on: SK-MEL-5
786-0 = tested on: 786-0
HOP-18 = tested on: HOP-18
UO-31 = tested on: UO-31
SNB-75 = tested on: SNB-75
M14 = tested on: M14
NCI-H226 = tested on: NCI-H226
HOP-62 = tested on: HOP-62
SNB-19 = tested on: SNB-19
CAKI-1 = tested on: CAKI-1
NCI-H522 = tested on: NCI-H522
HL-60 = tested on: HL-60
SF-268 = tested on: SF-268
OVCAR-3 = tested on: OVCAR-3
DMS-273 = tested on: DMS-273
DMS-114 = tested on: DMS-114
UACC-62 = tested on: UACC-62
HT-29 = tested on: HT-29
OVCAR-5 = tested on: OVCAR-5
SK-MEL-28 = tested on: SK-MEL-28
LXFL 529 = tested on: LXFL 529
K562 = tested on: K562
A549 = tested on: A549
NCI-H460 = tested on: NCI-H460
DLD-1 = tested on: DLD-1
LOX IMVI = tested on: LOX IMVI
ACHN = tested on: ACHN
KM12 = tested on: KM12
TK-10 = tested on: TK-10
OVCAR-8 = tested on: OVCAR-8
RXF 393 = tested on: RXF 393
M19-MEL = tested on: M19-MEL
Malme-3M = tested on: Malme-3M
NCI-H23 = tested on: NCI-H23
SK-MEL-2 = tested on: SK-MEL-2
OVCAR-4 = tested on: OVCAR-4
NCI/ADR-RES = tested on: NCI/ADR-RES
MDA-MB-435 = tested on: MDA-MB-435
T47D = tested on: T47D
PC-3 = tested on: PC-3
SNB-78 = tested on: SNB-78
DU-145 = tested on: DU-145
A498 = tested on: A498
SF-539 = tested on: SF-539
MCF7 = tested on: MCF7
HOP-92 = tested on: HOP-92
XF498 = tested on: XF498
MDA-N = tested on: MDA-N
Hs-578T = tested on: Hs-578T
MDA-MB-231 = tested on: MDA-MB-231

In the case of `O=C1C(Cl)C(c2cccc([N+](=O)[O-])c2)N1n1cnc2ccccc2c1=O` (stereo not given), the GI50 (U-251) is reported as > 100 µM (inactive), the GI50 (CCRF-CEM) is reported as > 10 µM (inactive) and the GI50 (HCC 2998) is reported as > 100 µM (inactive). The GI50 (SR) was 19.1 µM (inactive), the GI50 (KM-20L2) was 85.7 µM (inactive) and the GI50 (RPMI-8226) was 42.3 µM (inactive). The GI50 (EKVX) was > 100 µM (inactive), the GI50 (HCT-116) was 37.8 µM (inactive) and the GI50 (SF-295) was > 100 µM (inactive). The GI50 (HCT-15) was greater than 100 µM, the GI50 (SW-620) was > 100 µM (inactive) and the GI50 (SN12C) was > 100 µM (inactive). For the same compound, the GI50 (SK-OV-3) was > 100 µM (inactive), the GI50 (COLO 205) was > 100 µM (inactive) and the GI50 (UACC-257) was 55.2 µM (inactive). The GI50 (IGROV-1) was > 100 µM (inactive), the GI50 (MOLT-4) was 35.1 µM (inactive) and the GI50 (SK-MEL-5) was > 100 µM (inactive). For the same compound, the GI50 (786-0) was > 100 µM (inactive), the GI50 (HOP-18) was 11 µM (inactive) and the GI50 (UO-31) was 14.7 µM (inactive). The GI50 (SNB-75) was 65.8 µM (inactive), the GI50 (M14) was > 100 µM (inactive) and the GI50 (NCI-H226) was > 100 µM (inactive). The GI50 (HOP-62) was > 100 µM (inactive), the GI50 (SNB-19) was > 100 µM (inactive) and the GI50 (CAKI-1) was 91.2 µM (inactive). For the same compound, the GI50 (NCI-H522) was 46.3 µM (inactive), the GI50 (HL-60) was 57 µM (inactive) and the GI50 (SF-268) was > 100 µM (inactive). The GI50 (OVCAR-3) was 78.7 µM (inactive), the GI50 (DMS-273) was > 100 µM (inactive) and the GI50 (DMS-114) was 86.9 µM (inactive). The GI50 (UACC-62) was > 100 µM (inactive), the GI50 (HT-29) was > 100 µM (inactive) and the GI50 (OVCAR-5) was 58.5 µM (inactive). For the same compound, the GI50 (SK-MEL-28) was > 100 µM (inactive), the GI50 (LXFL 529) was 92.3 µM (inactive) and the GI50 (K562) was 49.7 µM (inactive). For the same compound, the GI50 (A549) was > 100 µM (inactive), the GI50 (NCI-H460) was 50.9 µM (inactive) and the GI50 (DLD-1) was > 100 µM (inactive). For the same compound, the GI50 (LOX IMVI) was > 100 µM (inactive), the GI50 (ACHN) was > 100 µM (inactive) and the GI50 (KM12) was > 100 µM (inactive). The GI50 (TK-10) was > 100 µM (inactive), the GI50 (OVCAR-8) was > 100 µM (inactive) and the GI50 (RXF 393) was > 100 µM (inactive). The GI50 (M19-MEL) was > 100 µM (inactive), the GI50 (Malme-3M) was > 100 µM (inactive) and the GI50 (NCI-H23) was > 100 µM (inactive). For the same compound, the GI50 (SK-MEL-2) was > 100 µM (inactive) and the GI50 (OVCAR-4) was 54.6 µM (inactive).
For `C=C(C)C(O)CCC1(C)C=Cc2c(c(C)cc3c2[nH]c2ccccc23)O1` (stereo not given), the GI50 (U-251) was 5.01 µM (inactive), the GI50 (CCRF-CEM) was 7.74 µM (inactive) and the GI50 (HCC 2998) was 5.65 µM (inactive). The GI50 (NCI/ADR-RES) was 8.81 µM (inactive), the GI50 (MDA-MB-435) was 8.41 µM (inactive) and the GI50 (SR) was 8.47 µM (inactive). The GI50 (KM-20L2) was 3.99 µM (inactive), the GI50 (RPMI-8226) was 9.77 µM (inactive) and the GI50 (HCT-116) was 13.2 µM (inactive). For the same compound, the GI50 (T47D) was 7.83 µM (inactive), the GI50 (SF-295) was 4.34 µM (inactive) and the GI50 (PC-3) was 6.55 µM (inactive). The GI50 (SNB-78) was 8.77 µM (inactive), the GI50 (HCT-15) was 4.26 µM and the GI50 (DU-145) was 12.6 µM (inactive). For the same compound, the GI50 (SW-620) was 4.48 µM (inactive), the GI50 (SN12C) was 12.8 µM (inactive) and the GI50 (SK-OV-3) was 23.3 µM (inactive). For the same compound, the GI50 (A498) was 13.6 µM (inactive), the GI50 (COLO 205) was 4.65 µM (inactive) and the GI50 (UACC-257) was 8.17 µM (inactive). For the same compound, the GI50 (IGROV-1) was 17.1 µM (inactive), the GI50 (MOLT-4) was 5.75 µM (inactive) and the GI50 (SK-MEL-5) was 7.62 µM (inactive). For the same compound, the GI50 (786-0) was 4.91 µM (inactive), the GI50 (UO-31) was 6.87 µM (inactive) and the GI50 (SNB-75) was 3.3 µM (inactive). The GI50 (M14) was 5.05 µM (inactive), the GI50 (NCI-H226) was 7.01 µM (inactive) and the GI50 (HOP-62) was 4.75 µM (inactive). The GI50 (SNB-19) was 15.2 µM (inactive), the GI50 (SF-539) was 4.27 µM (inactive) and the GI50 (NCI-H522) was 4.91 µM (inactive). The GI50 (HL-60) was 6.68 µM (inactive), the GI50 (SF-268) was 9.93 µM (inactive) and the GI50 (OVCAR-3) was 7.52 µM (inactive). The GI50 (DMS-114) was 11.6 µM (inactive), the GI50 (UACC-62) was 4.8 µM (inactive) and the GI50 (HT-29) was 4.72 µM (inactive). For the same compound, the GI50 (MCF7) was 12.3 µM (inactive), the GI50 (OVCAR-5) was 4.2 µM (inactive) and the GI50 (SK-MEL-28) was 16.7 µM (inactive). For the same compound, the GI50 (LXFL 529) was 8.05 µM (inactive), the GI50 (K562) was 6.25 µM (inactive) and the GI50 (A549) was 7.4 µM (inactive). The GI50 (HOP-92) was 7.01 µM (inactive), the GI50 (NCI-H460) was 5.42 µM (inactive) and the GI50 (DLD-1) was 7.28 µM (inactive). For the same compound, the GI50 (XF498) was 6.67 µM (inactive), the GI50 (LOX IMVI) was 4.12 µM (inactive) and the GI50 (ACHN) was 4.86 µM (inactive). For the same compound, the GI50 (KM12) was 5.85 µM (inactive), the GI50 (MDA-N) was 3.58 µM (inactive) and the GI50 (TK-10) was > 25 µM (inactive). The GI50 (OVCAR-8) was 9.08 µM (inactive), the GI50 (RXF 393) was 0.245 µM (active) and the GI50 (M19-MEL) was 13.2 µM (inactive). For the same compound, the GI50 (Malme-3M) was 11.3 µM (inactive), the GI50 (NCI-H23) was 10.7 µM (inactive) and the GI50 (Hs-578T) was 3.17 µM (inactive). For the same compound, the GI50 (OVCAR-4) was 16.5 µM (inactive) and the GI50 (MDA-MB-231) was 3.49 µM (inactive).
